Measured values from patent publication US4755526A, “Method of inhibiting aromatase” (Eli Lilly and Company, priority 1984, dated 1988).
Structures can show the parent of a compound that is named as a salt.

System: estrogen synthesis
Assay: Estrogen synthesis inhibition in rats (uterine weight and ovarian steroid concentrations)
Assay type: in vivo, female Wistar rats
Conditions: 30 ppm in feed (approximately 3 mg/kg/day), ovaries
Method: Test compounds were administered for seven days either daily by gavage in corn oil or as a component of the diet. Control animals received either corn oil or diet without the test compound. Beginning on the fourth day of the test, all animals treated with the test compound and one half of the control animals were given a subcutaneous injection of 1.0 mg of testosterone propionate in corn oil. The remaining control animals received only an equivalent volume of corn oil.
After two hours, the animals were killed by decapitation. Uteri were isolated, trimmed of extraneous connective tissue, and weighed. […] In the control animals treated with testosterone propionate, estrogens produced by aromatization stimulated the uterus resulting in an increase in weight.
The ovarian steroids were extracted with 1.5 ml of 9:1 (v/v) toluene/ethanol to which had been added 25 to 100 mcg each of unlabelled estradiol, estriol, and estrone, and approximately 1000 dpm of [^14 C]-estradiol. The samples were vortexed, centrifuged at 500×g for 10 minutes, and the organic phase was transferred to a conical vial. Two additional extractions were performed on the residue in the same way. The pooled organic extracts were evaporated for subsequent thin-layer chromatography.
Ovarian proteins were precipitated by the addition of 5.0 ml of ethanol to the remaining aqueous phase. After an overnight incubation at 4° C., the samples were centrifuged at 1500×g for 10 minutes. The supernatant was discarded, and the pellet was dissolved in 0.3N potassium hydroxide.
The organic residue from each above extraction was redissolved in 9:1 (v/v) dichloromethane/methanol. The solution of each sample was applied to separate silica gel thin layer chromatography plates which contained a fluorescent indicator. The plates were developed in the first dimension with 160:38:1.5:0.5 (v/v/v/v) dichloromethane/ethyl acetate/methanol/acetic acid to within 3 cm of the top of the plate. After air-drying, the plate was developed in the second dimension with 180:19:1 (v/v/v) dichloromethane/methanol/ammonium hydroxide. The plate was air-dried and viewed under 254 nm UV light.
The visible spots were marked and the plates were sprayed with primulin (0.001% in 4:1 v/v acetone/water) according to the method of Wright, J. Chromatography, 59, 220 (1971) which allowed for the identification of additional steroids under 365 nm UV light. The spots were scraped from the plate using a glass wool plugged Pasteur pipet attached to a vacuum line. The steroids were eluted directly into scintillation vials by the addition of 0.2 ml of dichloromethane followed by two washes each of 2.0 ml of methanol. The organic solvent was evaporated and 10.0 ml of scintillation fluid (Beckman Ready Solv-NA) was added to the vials. Samples were analyzed by liquid scintillation spectrometry. Corrections were made based on the recoveries of the [^14 C]-steroid. Steroid concentrations are expressed as femtomoles per milligram protein.

Structure (SMILES) | Mean Steroid Concentration, estradiol | Mean Steroid Concentration, estriol
Clc1ccc(C(c2ccc(Cl)cc2)n2cnnc2)cc1 [4-[bis(4-chlorophenyl)methyl]-4H--1,2,4-triazole] | 0.46 femtomoles per milligram of protein | 0.60 femtomoles per milligram of protein

Same assay, conditions: 30 ppm in feed (approximately 3 mg/kg/day), testosterone propionate-treated rats

Structure (SMILES) | Mean Uterine Weight
COc1ccccc1C(c1ccccc1)n1ccnc1 (centres unmarked) [1-[(2-methoxyphenyl)phenylmethyl]-1H--imidazole nitrate] | 176.0 mg
Clc1ccc(C(c2ccc(Cl)cc2)n2cnnc2)cc1 [4-[bis(4-chlorophenyl)methyl]-4H--1,2,4-triazole] | 113.3 mg
Clc1ccc(C(c2ccc(Cl)cc2)(c2cncnc2)n2ccnc2)cc1 [5-[bis(4-chlorophenyl)-1H--imidazol-1-ylmethyl]pyrimidine] | 107.5 mg

Same assay, conditions: 300 ppm in feed (approximately 30 mg/kg/day), ovaries

Structure (SMILES) | Mean Steroid Concentration, estradiol | Mean Steroid Concentration, estriol | Mean Steroid Concentration, estrone
Clc1ccc(C(c2ccc(Cl)cc2)n2cnnc2)cc1 [4-[bis(4-chlorophenyl)methyl]-4H--1,2,4-triazole] | 0.48 femtomoles per milligram of protein | 0.64 femtomoles per milligram of protein | 0.10 femtomoles per milligram of protein

Same assay, conditions: 300 ppm in feed (approximately 30 mg/kg/day), testosterone propionate-treated rats

Structure (SMILES) | Mean Uterine Weight
COc1ccccc1C(c1ccccc1)n1ccnc1 (centres unmarked) [1-[(2-methoxyphenyl)phenylmethyl]-1H--imidazole nitrate] | 212.6 mg
Clc1ccc(C(c2ccc(Cl)cc2)n2cnnc2)cc1 [4-[bis(4-chlorophenyl)methyl]-4H--1,2,4-triazole] | 97.3 mg
Clc1ccc(C(c2ccc(Cl)cc2)(c2cncnc2)n2ccnc2)cc1 [5-[bis(4-chlorophenyl)-1H--imidazol-1-ylmethyl]pyrimidine] | 87.6 mg

Target: T1, aromatase (Rattus norvegicus, UniProt P22443)
T1 construct: ovarian microsomes are obtained from rats treated with pregnant mares serum gonadotropin; from tissue; host or cells: ovarian microsomes of rats treated with pregnant mares serum gonadotropin
T1 sequence (P22443 1-508): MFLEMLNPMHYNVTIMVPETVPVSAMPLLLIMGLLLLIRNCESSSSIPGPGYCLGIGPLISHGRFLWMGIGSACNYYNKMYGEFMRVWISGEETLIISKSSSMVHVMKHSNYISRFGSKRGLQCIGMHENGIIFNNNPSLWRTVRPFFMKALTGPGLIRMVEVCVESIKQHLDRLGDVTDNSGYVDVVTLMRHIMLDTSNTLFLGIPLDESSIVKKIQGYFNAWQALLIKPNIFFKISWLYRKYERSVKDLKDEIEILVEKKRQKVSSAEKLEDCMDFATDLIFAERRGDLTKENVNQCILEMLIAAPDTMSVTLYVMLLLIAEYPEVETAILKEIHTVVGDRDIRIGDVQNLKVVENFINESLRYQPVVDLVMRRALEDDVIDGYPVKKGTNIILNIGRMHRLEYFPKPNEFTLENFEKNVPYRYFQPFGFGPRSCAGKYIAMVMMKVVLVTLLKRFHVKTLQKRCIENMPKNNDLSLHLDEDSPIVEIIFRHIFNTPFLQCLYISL
Assay: Aromatase inhibition in the rat ovarian microsome assay
Assay type: biochemical
Conditions: EC50: concentration required to achieve 50% inhibition of aromatase activity, substrate (androstenedione) concentration 0.1 μM
Method: In this test system, ovarian microsomes are obtained from rats treated with pregnant mares serum gonadotropin. Test compounds are added to reaction vials containing 0.1 μM 4-androstene-3,17-dione, 100,000 dpm 1,2[^3 H]-androstenedione, the microsomes and a NADPH generating system. The concentrations of the inhibitors tested ranged between 0.005 and 10 μM.

Structure (SMILES) | EC50
c1ccc(C(c2ccccc2)(c2cccc3ccccc23)n2ccnc2)cc1 [1-(1-naphthalenyldiphenylmethyl)-1H--imidazole] | 96 nM
c1ccc2c(Cn3ccnc3)cccc2c1 [1-(1-naphthalenylmethyl)-1H--imidazole hydrochloride] | 330 nM
c1ccc(C2(n3ccnc3)CCCCCC2)cc1 [1-(1-phenylcycloheptyl)-1H--imidazole] | 110 nM
c1ccc(C2(n3ccnc3)CCCCC2)cc1 [1-(1-phenylcyclohexyl)-1H--imidazole] | 93 nM
CC(c1ccccc1)n1ccnc1 (centres unmarked) [1-(1-phenylethyl)-1H--imidazole hydrochloride] | 1050 nM
Clc1ccccc1Cn1ccnc1 [1-(2-chlorobenzyl)imidazole hydrochloride] | 3500 nM
Clc1cccc(Cn2ccnc2)c1 [1-(3-chlorobenzyl)imidazole] | 3600 nM
Clc1ccc(Cn2cncn2)cc1 [1-(4-chlorobenzyl)-1H--1,2,4-triazole] | > 5000 nM
Clc1ccc(Cn2ccnc2)cc1 [1-(4-chlorobenzyl)-1H--imidazole] | 140 nM
Clc1ccc(Cn2ccnc2)cc1 [1-(4-chlorobenzyl)imidazole hydrochloride] | 450 nM
C#CC(c1ccc(Cl)cc1)(c1ccc(Cl)cc1)n1ccnc1 [1-[1,1-bis(4-chlorophenyl)-2-propynyl]-1H--imidazole] | < 50 nM
CCCC(c1ccccc1OCc1ccc(Cl)cc1Cl)n1ccnc1 (centres unmarked) [1-[1-(2-[2,4-dichlorobenzyloxy]phenyl)butyl]-1H--imidazole nitrate] | 125 nM
C=C(c1ccccc1OCc1cccc(Cl)c1)n1ccnc1 [1-[1-(2-[(3-chlorophenyl)methoxy]phenyl)ethenyl]-1H--imidazole hydrochloride] | 165 nM
CC(c1ccccc1Cl)n1ccnc1 (centres unmarked) [1-[1-(2-chlorophenyl)ethyl]-1H--imidazole hydrochloride] | 2500 nM
CCOc1ccccc1C(C)n1ccnc1 (centres unmarked) [1-[1-(2-ethoxyphenyl)ethyl]-1H--imidazole nitrate] | < 50 nM
CCOc1ccccc1C(CC)n1ccnc1 (centres unmarked) [1-[1-(2-ethoxyphenyl)propyl]-1H--imidazole nitrate] | 140 nM
CC(C)C(c1cccc2ccccc12)n1ccnc1 (centres unmarked) [1-[2-methyl-1-(1-naphthalenyl)propyl]-1H--imidazole nitrate] | 410 nM
c1ccc(-c2ccc(Cn3ccnc3)cc2)cc1 [1-[(1,1'-biphenyl)-4-ylmethyl]-1H--imidazole hydrochloride] | 1650 nM
Clc1ccc(Cn2ccnc2)c(Cl)c1 [1-[(2,4-dichlorophenyl)methyl]-1H--imidazole hydrochloride] | 730 nM
Clc1ccc(Cl)c(Cn2ccnc2)c1 [1-[(2,5-dichlorophenyl)methyl]-1H--imidazole hydrochloride] | 160 nM
Clc1cccc(Cl)c1Cn1ccnc1 [1-[(2,6-dichlorophenyl)methyl]-1H--imidazole hydrochloride] | > 5000 nM
Clc1cccc(Cl)c1COc1ccccc1Cn1ccnc1 [1-[(2-[2,6-dichlorobenzyloxy]phenyl)methyl]-1H--imidazole nitrate] | 125 nM
c1ccc(CCOc2ccccc2Cn2ccnc2)cc1 [1-[(2-[2-phenylethoxy]phenyl)methyl]-1H--imidazole nitrate] | 86 nM
CCOc1ccccc1Cn1ccnc1 [1-[(2-ethoxyphenyl)methyl]-1H--imidazole hydrochloride] | 1560 nM
CCOc1ccccc1C(c1ccccc1)n1ccnc1 (centres unmarked) [1-[(2-ethoxyphenyl)phenylmethyl]-1H--imidazole nitrate] | 100 nM
Fc1ccccc1Cn1ccnc1 [1-[(2-fluorophenyl)methyl]-1H--imidazole nitrate] | 2650 nM
COc1ccccc1Cn1ccnc1 [1-[(2-methoxyphenyl)methyl]-1H--imidazole hydrochloride] | 2100 nM

Structure (SMILES) | EC50
Cc1ccccc1Cn1ccnc1 [1-[(2-methylphenyl)methyl]-1H--imidazole hydrochloride] | 1500 nM
O=[N+]([O-])c1ccccc1Cn1ccnc1 [1-[(2-nitrophenyl)methyl]-1H--imidazole hydrochloride] | 3100 nM
FC(F)(F)c1ccccc1Cn1ccnc1 [1-[(2-trifluoromethylphenyl)methyl]-1H--imidazole hydrochloride] | 1750 nM
Clc1ccc(Cn2ccnc2)cc1Cl [1-[(3,4-dichlorophenyl)methyl]-1H--imidazole hydrochloride] | 320 nM
Clc1cc(Cl)cc(Cn2ccnc2)c1 [1-[(3,5-dichlorophenyl)methyl]-1H--imidazole hydrochloride] | 110 nM
COc1cccc(Cn2ccnc2)c1 [1-[(3-methoxyphenyl)methyl]-1H--imidazole ethanedioate] | 1250 nM
Cc1cccc(Cn2ccnc2)c1 [1-[(3-methylphenyl)methyl]-1H--imidazole ethanedioate] | 920 nM
O=[N+]([O-])c1cccc(Cn2ccnc2)c1 [1-[(3-nitrophenyl)methyl]-1H--imidazole hydrochloride] | 1130 nM
FC(F)(F)c1cccc(Cn2ccnc2)c1 [1-[(3-trifluoromethylphenyl)methyl]-1H--imidazole hydrochloride] | 390 nM
Fc1ccc(C(c2ccc(Br)cc2)n2cncn2)cc1 (centres unmarked) [1-[(4-bromophenyl)(4-fluorophenyl)methyl]-1H--1,2,4-triazole] | < 50 nM
Fc1ccc(C(c2ccc(Cl)cc2)n2cncn2)cc1 (centres unmarked) [1-[(4-chlorophenyl)(4-fluorophenyl)methyl]-1H--1,2,4-triazole] | < 50 nM
Clc1ccc(C(c2ccccc2)(c2ccccc2)n2ccnc2)cc1 [1-[(4-chlorophenyl)diphenylmethyl)-1H--imidazole] | 69 nM
Clc1ccc(C(c2ccccc2)(c2ccccc2)n2cncn2)cc1 [1-[(4-chlorophenyl)diphenylmethyl]-1H--1,2,4-triazole] | 95 nM
Cc1nccn1C(c1ccccc1)(c1ccccc1)c1ccc(Cl)cc1 [1-[(4-chlorophenyl)diphenylmethyl]-2-methyl-1H--imidazole] | 80 nM
Clc1ccc(C(c2ccccc2)n2cncn2)cc1 (centres unmarked) [1-[(4-chlorophenyl)phenylmethyl]-1H--1,2,4-triazole] | 150 nM
Fc1ccc(Cn2ccnc2)cc1 [1-[(4-fluorophenyl)methyl]-1H--imidazole nitrate] | 630 nM
COc1ccc(Cn2ccnc2)cc1 [1-[(4-methoxyphenyl)methyl]-1H--imidazole hydrochloride] | 2500 nM
Cc1ccc(Cn2ccnc2)cc1 [1-[(4-methylphenyl)methyl]-1H--imidazole hydrochloride] | 840 nM
FC(F)(F)c1ccc(Cn2ccnc2)cc1 [1-[(4-trifluoromethylphenyl)methyl]-1H--imidazole ethanedioate] | 190 nM
Clc1ccccc1C(c1ccccc1Cl)n1cncn1 [1-[bis(2-chlorophenyl)methyl]-1H--1,2,4-triazole] | > 5000 nM
Clc1ccc(C(c2ccccc2)(c2ccc(Cl)cc2)n2cncn2)cc1 [1-[bis(4-chlorophenyl)phenylmethyl]-1H--1,2,4-triazole] | 110 nM
Clc1ccc(C(c2ccccc2)(c2ccc(Cl)cc2)n2ccnc2)cc1 [1-[bis(4-chlorophenyl)phenylmethyl]-1H--imidazole] | 110 nM
Cc1nccn1C(c1ccccc1)(c1ccc(Cl)cc1)c1ccc(Cl)cc1 [1-[bis(4-chlorophenyl)phenylmethyl]-2-methyl-1H--imidazole] | 94 nM
Fc1ccc(C(c2ccc(F)cc2)n2cncn2)cc1 [1-[bis(4-fluorophenyl)methyl]-1H--1,2,4-triazole] | 94 nM
Fc1ccc(C(c2ccccc2)(c2ccc(F)cc2)n2cncn2)cc1 [1-[bis(4-fluorophenyl)phenylmethyl]-1H--1,2,4-triazole] | 80 nM
Cc1nccn1C(c1ccccc1)(c1ccc(F)cc1)c1ccc(F)cc1 [1-[bis(4-fluorophenyl)phenylmethyl]-2-methyl-1H--imidazole] | 80 nM
COc1ccc(C(c2ccccc2)(c2ccc(OC)cc2)n2cncn2)cc1 [1-[bis(4-methoxyphenyl)phenylmethyl]-1H--1,2,4-triazole] | 240 nM
